Laboratory results reported in publication PMC6614837 (Nucleic Acids Research, 2019).
Where a name gives a salt, the structure may show the parent alone.

Target: T1, RNase P holoenzyme from Thermotoga maritima (Thermotoga maritima, UniProt Q9X1H4)
T1 construct: made in house
T1 sequence (Q9X1H4 1-117): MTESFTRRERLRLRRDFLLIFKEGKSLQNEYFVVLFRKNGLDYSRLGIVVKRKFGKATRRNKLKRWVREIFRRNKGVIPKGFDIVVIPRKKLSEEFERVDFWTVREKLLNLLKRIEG
Test: Real-time fluorescence-based (FRET) RNase P activity assay with minihelix (Mh) substrate
Assay type: biochemical
Details: 100 mM MgCl2
Description: The reconstitution of the RNase P holoenzyme was performed as described in ([40],[19]). This protocol produces a homogeneous and functional ribozyme that can be crystallized by mixing P RNA and P protein in a 1:1.1 molar ratio in 1× TH buffer (33 mM Tris–HCl, 66 mM HEPES, pH 7.4) and 400 mM ammonium acetate (AmOAc). The mixture was heated to 95°C for 2 min in a water bath, then chilled on ice for 2 min, after which MgCl2 was added to a final concentration of 100 mM. […] This higher concentration was used in all experiments described herein. The holoenzyme was further incubated at 50°C for 10 min and 37°C for 40 min. The final concentration of holoenzyme was 333 nM (35.6 μg/ml of P RNA and 4.7 μg/ml of P protein).
The minihelix (Mh) substrate (Figure 1A) was adopted from a previously characterized RNase P substrate, pMini3bpUG ([32],[33]) and coupled to either Black Hole Quencher 1 (BHQ1) or Black Hole Quencher 2 (BHQ2) at the 5′-end and Alexa Fluor 488 at the 3′-end. This probe was purchased either from Sigma-Aldrich or Integrated DNA Technologies (IDT). A requested scale of […] yielded between 6.3 and 20 nmol (57.5 to 181 μg, enough for 1300–4000 reactions depending on the experimental substrate concentration). Before use, the minihelix was diluted from a 100 μM stock (dissolved in water) to 3.6 μM in activity buffer H (33 mM Tris–HCl, 66 mM HEPES, pH 7.4, 400 mM AmOAc and 100 mM MgCl2).
Reactions were performed in a total volume of 20 μl. Pipetting was done by hand using multichannel pipettes. First, an 18 μl reaction mixture containing 16.5 μl of activity buffer (H for Mh or L supplemented with 10% PEG 200 for bipartite pre-tRNA) and 270 nM (Mh) or 135 nM (bipartite pre-tRNA) (1.5 or 0.7 μl of the 3.6 μM stock) of the fluorescent substrate probe was pre-incubated on ice for at least 5 m in a black polystyrene 384-well microtiter microplate with a flat transparent bottom (Corning ref 3540). The holoenzyme was then added at a final concentration of 33 nM (2 μl of a 333 nM stock) in 1× TH buffer and mixed. Kinetic activity was monitored in a Synergy MX Multimode Detector (BioTek) at 37°C with rapid agitation. At least 20 readings were taken per well every 15 s. The probe was excited at 485 nm, and its emission was monitored at 535 nm with an integration time of 1 s. From the plots of relative fluorescent units (RFU) versus time, linear regression was used to determine the slopes in the linear portion of the curves, using at least 12 data points to obtain initial velocities. Non-linear fitting to obtain the Michaelis–Menten parameters was performed using GraphPad Prism® 6.01 software.
Supplementary Figure 3. FRET assays of RNase P with the fluorescent substrate are reproducible. (A) Representative plots of kinetic assays performed in a single run. The standard assay (SA), (+), was performed at 37° C in a total volume of 20 µL and contained RNase P holoenzyme at 33 nM, substrate minihelix (Mh) at 270 nM, 10% DMSO and activity buffer (AB).
The negative control assay (-) contained 100 mM CaCl2 in place of MgCl2. Ten to twelve wells were monitored simultaneously in a typical assay. (B) Zoomed view of the linear region of the kinetic assays shown in panel A. Fluorescence readings were performed every 15-20 seconds.
Linear regression calculations were done using the GraphPad Prism 7 software. (C) The coefficient Z’-factor (1) was used as an indicator of reproducibility and was calculated based on the relative fluorescence units (RFU) in the plateau phase (taken at 20 minutes). The Z’-factor has a […]
presented in this work were either measured in triplicate or confirmed in subsequent assays. (D) […]
assay is robust. The IC50 values reported in Figures 1C and 2 were calculated according to this kinetic parameter. There is a negative drift in fluorescence in the case of the negative control.
However, it should be noted that the mean value of it (-279) is much smaller than the signal of the […]
positive control (3397). […]

SMILES	Inhibition of RNase P (Mh fluorescence assay)
NC[C@H]1O[C@H](O[C@H]2[C@H](O)[C@@H](O[C@H]3O[C@H](CO)[C@@H](O)[C@H](N)[C@H]3O)[C@H](N)C[C@@H]2N)[C@H](N)[C@@H](O)[C@@H]1O [kanamycin B, reference compound]	did not detect inhibition
NC[C@@H]1O[C@H](O[C@H]2[C@@H](O)[C@H](O[C@@H]3[C@@H](O)[C@H](N)C[C@H](N)[C@H]3O[C@H]3O[C@H](CN)[C@@H](O)[C@H](O)[C@H]3N)O[C@@H]2CO)[C@H](N)[C@@H](O)[C@@H]1O [neomycin B, reference compound]	did not detect inhibition

Target: T1, RNase P holoenzyme from Thermotoga maritima
Test: Verification of deconvoluted hits by fluorescence- and gel-based assays with Mh substrate
Assay type: biochemical
Details: 250 μM (fluorescence) and 500 μM (gel)
Description: For gel-based activity assays, reactions were prepared as described in the previous section (fluorescence activity assay), incubated for 1–15 min at 37–50°C, then loaded onto a denaturing 7 M urea–20% acrylamide gel in the case of the Mh substrate or 19% acrylamide (40% acrylamide/bisacrylamide 38.5:1.5) for the bipartite pre-tRNA substrate. The activity conditions for the gel reported in Figure 3A, to monitor the cleavage of the holoenzyme and P RNA, were under 100 mM AmOAc and 10 mM MgCl2. The gels (13 × 16 × 0.15 cm) were electrophoresed at 20 V/cm for 2–3 h. UV shadowing or ethidium bromide staining was used to visualize RNA cleavage. Detection of minihelix fluorescence was achieved without staining using a UV lamp with excitation at ∼254 nm.
Screening was performed with the Spectrum Collection (MicroSource Discovery Systems, Inc), which comprises 2560 compounds, each dissolved in DMSO at 10 mM. For our initial screening, compounds from this collection were tested in cocktails; eight compounds were tested per well in 384-well format. The final concentration of each compound in the cocktail was 1.25 mM. For the activity assay, reactions were set up in a total volume of 20 μl (13.5 μl of activity buffer, 1.5 μl of fluorescent Mh at 3.6 μM, 3 μl of DMSO or cocktail). […] The control wells included for each experiment series were: (i) reaction with twice (3 μl) the fluorescent Mh amount to avoid a signal saturation for the rest of the wells, (ii) two reactions with 10% DMSO (no cocktail), (iii) Mh substrate only, with no ribozyme, (iv) reaction with 100 mM CaCl2, which it is used as a negative control as it competes with MgCl2 (EDTA was not used because metal ions are essential to maintaining the structure of P RNA ([41])). The reaction was initiated by adding 2 μl of holoenzyme at 333 nM and monitored as described above. Each round of experiments contained twenty different cocktails corresponding to one row of a 384-well plate (Supplementary Figures S6 and S24). […] At this stage, each compound from the inhibitory cocktails was tested at a final concentration of 1 mM (2 μl of the 10 mM stock). We performed a gel-based assay for the nine selected compounds to qualitatively verify the results obtained by the fluorescence assay (Supplementary Figure S9). After deconvolution, each of the final four potential positive compounds was purchased individually from a different provider (Sigma-Aldrich) and tested inhibition using the T. maritima Mh, pre-tRNA and bipartite pre-tRNA substrates (Figure 2 and Supplementary Figures S10–S12 and S14).
Supplementary Figure 9. Consistent results between fluorescence- and gel-based assays. (A) Plots of fluorescent kinetic assays performed in standard conditions in the presence of the different hits at a concentration of 250 µM (four-fold lower concentration as compared to Supplementary Figure 8). (B) End-point assays of the RNase P holoenzyme from Thermotoga maritima in the presence of the non-fluorescent minihelix substrate and the different inhibitor hits at 500 µM, as assessed by 20% urea-PAGE.
The holoenzyme at 0.5 µM was preincubated at 37° C for 30 minutes in the presence of the individual compounds, centrifuged for 15 minutes at 12000g and incubated with the Mh substrate at 18 µM at 37 °C for 15 minutes. At this stage, iodoquinol was the only compound whose behavior was not corroborated in both assays (panels A and B). […]
experiments reported in this Figure. […] Alexidine […]

SMILES	Inhibition of RNase P in fluorescence and gel verification
N=C1C=CC(=C(c2ccc(N)cc2)c2ccc(N)cc2)C=C1 [Pararoseaniline]	did not inhibit RNase P
O=C(N/N=C/c1ccc([N+](=O)[O-])o1)c1cc([N+](=O)[O-])cc([N+](=O)[O-])c1O [nifursol, reference compound]	weak inhibitor
Cc1cc(O)c2c(c1)C(=O)c1cc(O)cc(O)c1C2=O [emodin]	did not inhibit RNase P
CCCCC(CC)CNC(=N)NC(=N)NCCCCCCNC(=N)NC(=N)NCC(CC)CCCC (stereo not shown) [alexidine hydrochloride]	seems to precipitate the holoenzyme
Oc1c(I)cc(I)c2cccnc12 [iodoquinol, reference compound]	false positive
